Experimental data taken from ChEMBL document CHEMBL4376833, “Influence of Non-natural Cationic Amino Acids on the Biological Activity Profile of Innate Defense Regulator Peptides” (J Med Chem, 2019).
Active and inactive are the calls of the source. No rule for the calls is given here. Non-standard residues stand in square brackets, D forms with d. Residues, ends and D or L forms follow the SMILES beside them. hArg = N=C(N)NCCCC[C@H](N)C(=O)O; Agb = N=C(N)NCC[C@H](N)C(=O)O; Agp = N=C(N)NC[C@H](N)C(=O)O; Orn = NCCC[C@H](N)C(=O)O; Dab = NCC[C@H](N)C(=O)O; Dap = NC[C@H](N)C(=O)O

Tests used:
Staphylococcus aureus [1] = experiment: Antibiofilm activity against methicillin-resistant Staphylococcus aureus assessed as inhibition of biofilm formation by measuring residual biofilm growth incubated for overnight at 10-fold dilution by crystal violet staining based microtiter plate assay relative to control; assay type: functional
Staphylococcus aureus [2] = experiment: Antibiofilm activity against methicillin-resistant Staphylococcus aureus assessed as inhibition of biofilm formation incubated for overnight by crystal violet staining based microtiter plate assay; assay type: functional, organism-based
Staphylococcus aureus [3] = experiment: Antibacterial activity against methicillin-resistant Staphylococcus aureus assessed as alteration in bacterial growth incubated for overnight by microtiter plate based spectrophotometric analysis; assay type: functional, organism-based

Row | Molecule | residual biofilm growth (% of control) (Staphylococcus aureus [1]) | inhibition (Staphylococcus aureus [2]) | Activity (Staphylococcus aureus [3])
1 | CC[C@H](C)[C@H](NC(=O)[C@H](CCCNC(=N)N)NC(=O)[C@@H](NC(=O)[C@H](C)NC(=O)[C@@H](NC(=O)[C@@H](NC(=O)[C@H](CC(C)C)NC(=O)[C@H](CN)NC(=O)[C@@H](N)C(C)C)[C@@H](C)CC)C(C)C)C(C)C)C(=O)N[C@@H](Cc1c[nH]c2ccccc12)C(=O)N[C@@H](CCCNC(=N)N)C(=O)N[C@@H](CCCNC(=N)N)C(N)=O (H-V[Dap]LIVAVRIWRR-NH2) | 19.1% | Dose-dependent effect | Active
2 | CC[C@H](C)[C@H](NC(=O)[C@H](CCCNC(=N)N)NC(=O)[C@@H](NC(=O)[C@H](C)NC(=O)[C@@H](NC(=O)[C@@H](NC(=O)[C@H](CC(C)C)NC(=O)[C@H](CCCN)NC(=O)[C@@H](N)C(C)C)[C@@H](C)CC)C(C)C)C(C)C)C(=O)N[C@@H](Cc1c[nH]c2ccccc12)C(=O)N[C@@H](CCCNC(=N)N)C(=O)N[C@@H](CCCNC(=N)N)C(N)=O (H-V[Orn]LIVAVRIWRR-NH2) | 13.2% | Dose-dependent effect | Active
3 | CC[C@H](C)[C@H](NC(=O)[C@H](CCCNC(=N)N)NC(=O)[C@@H](NC(=O)[C@H](C)NC(=O)[C@@H](NC(=O)[C@@H](NC(=O)[C@H](CC(C)C)NC(=O)[C@H](CCCCNC(=N)N)NC(=O)[C@@H](N)C(C)C)[C@@H](C)CC)C(C)C)C(C)C)C(=O)N[C@@H](Cc1c[nH]c2ccccc12)C(=O)N[C@@H](CCCNC(=N)N)C(=O)N[C@@H](CCCNC(=N)N)C(N)=O (H-V[hArg]LIVAVRIWRR-NH2) | 38.4% | Dose-dependent effect | Active
4 | CC[C@H](C)[C@H](NC(=O)[C@H](CCCNC(=N)N)NC(=O)[C@@H](NC(=O)[C@H](C)NC(=O)[C@@H](NC(=O)[C@@H](NC(=O)[C@H](CC(C)C)NC(=O)[C@H](CCCNC(=N)N)NC(=O)[C@@H](N)CCNC(=N)N)[C@@H](C)CC)C(C)C)C(C)C)C(=O)N[C@@H](Cc1c[nH]c2ccccc12)C(=O)N[C@@H](CCCNC(=N)N)C(=O)N[C@@H](CCCNC(=N)N)C(N)=O (H-[Agb]RLIVAVRIWRR-NH2) | 13.6% | Dose-dependent effect | Active
5 | CC[C@H](C)[C@H](NC(=O)[C@H](CCCNC(=N)N)NC(=O)[C@@H](NC(=O)[C@H](C)NC(=O)[C@@H](NC(=O)[C@@H](NC(=O)[C@H](CC(C)C)NC(=O)[C@H](CCCNC(=N)N)NC(=O)[C@@H](N)CNC(=N)N)[C@@H](C)CC)C(C)C)C(C)C)C(=O)N[C@@H](Cc1c[nH]c2ccccc12)C(=O)N[C@@H](CCCNC(=N)N)C(=O)N[C@@H](CCCNC(=N)N)C(N)=O (H-[Agp]RLIVAVRIWRR-NH2) | 10.6% | Dose-dependent effect | Active
6 | CC[C@H](C)[C@H](NC(=O)[C@H](CCCNC(=N)N)NC(=O)[C@@H](NC(=O)[C@H](C)NC(=O)[C@@H](NC(=O)[C@@H](NC(=O)[C@H](CC(C)C)NC(=O)[C@H](CCCNC(=N)N)NC(=O)[C@@H](N)CCN)[C@@H](C)CC)C(C)C)C(C)C)C(=O)N[C@@H](Cc1c[nH]c2ccccc12)C(=O)N[C@@H](CCCNC(=N)N)C(=O)N[C@@H](CCCNC(=N)N)C(N)=O (H-[Dab]RLIVAVRIWRR-NH2) | 14.2% | Dose-dependent effect | Active
7 | CC[C@H](C)[C@H](NC(=O)[C@H](CCCNC(=N)N)NC(=O)[C@@H](NC(=O)[C@H](C)NC(=O)[C@@H](NC(=O)[C@@H](NC(=O)[C@H](CC(C)C)NC(=O)[C@H](CCCNC(=N)N)NC(=O)[C@@H](N)CN)[C@@H](C)CC)C(C)C)C(C)C)C(=O)N[C@@H](Cc1c[nH]c2ccccc12)C(=O)N[C@@H](CCCNC(=N)N)C(=O)N[C@@H](CCCNC(=N)N)C(N)=O (H-[Dap]RLIVAVRIWRR-NH2) | 8.5% | Dose-dependent effect | Active
8 | CC[C@H](C)[C@H](NC(=O)[C@H](CCCNC(=N)N)NC(=O)[C@@H](NC(=O)[C@H](C)NC(=O)[C@@H](NC(=O)[C@@H](NC(=O)[C@H](CC(C)C)NC(=O)[C@H](CCCNC(=N)N)NC(=O)[C@@H](N)CCCN)[C@@H](C)CC)C(C)C)C(C)C)C(=O)N[C@@H](Cc1c[nH]c2ccccc12)C(=O)N[C@@H](CCCNC(=N)N)C(=O)N[C@@H](CCCNC(=N)N)C(N)=O (H-[Orn]RLIVAVRIWRR-NH2) | 12.2% | Dose-dependent effect | Active
9 | CC[C@H](C)[C@H](NC(=O)[C@H](CCCNC(=N)N)NC(=O)[C@@H](NC(=O)[C@H](C)NC(=O)[C@@H](NC(=O)[C@@H](NC(=O)[C@H](CC(C)C)NC(=O)[C@H](CCCNC(=N)N)NC(=O)[C@@H](N)CCCCNC(=N)N)[C@@H](C)CC)C(C)C)C(C)C)C(=O)N[C@@H](Cc1c[nH]c2ccccc12)C(=O)N[C@@H](CCCNC(=N)N)C(=O)N[C@@H](CCCNC(=N)N)C(N)=O (H-[hArg]RLIVAVRIWRR-NH2) | 17.1% | Dose-dependent effect | Active
10 | H-KRLIVAVRIWRR-NH2 | 12% | Dose-dependent effect | Active
11 | H-RRLIVAVRIWRR-NH2 | 12.2% | Dose-dependent effect | Active
12 | H-VKLIVAVRIWRR-NH2 | 7.6% | Dose-dependent effect | Active
13 | H-VRKIVAVRIWRR-NH2 | 88.8% | Dose-dependent effect | Active
14 | H-VRLIKAVRIWRR-NH2 | 102% | Dose-dependent effect | Active
15 | H-VRLIRAVRIWRR-NH2 | 102% | Dose-dependent effect | Active
16 | H-VRLIVAKRIWRR-NH2 | 101.6% | Dose-dependent effect | Active
17 | H-VRLIVARRIWRR-NH2 | 102.6% | Dose-dependent effect | Active
18 | H-VRLIVAVKIWRR-NH2 | 17.9% | Dose-dependent effect | Active
19 | H-VRLIVAVRIKRR-NH2 | 44.7% | Dose-dependent effect | Active
20 | H-VRLIVAVRIRRR-NH2 | 33.2% | Dose-dependent effect | Active
21 | H-VRLIVAVRIWKR-NH2 | 11.8% | Dose-dependent effect | Active
22 | H-VRLIVAVRIWRK-NH2 | 6% | Dose-dependent effect | Active
23 | H-VRLIVAVRKWRR-NH2 | 95.8% | Dose-dependent effect | Active
24 | H-VRLIVAVRRWRR-NH2 | 70.2% | Dose-dependent effect | Active
25 | H-VRLKVAVRIWRR-NH2 | 10.7% | Dose-dependent effect | Active
